According to US20110251379A1, “COMPOUNDS USEFUL FOR TREATING NEURODEGENERATIVE DISORDERS” (Satori Pharmaceuticals, Inc., priority 2010, published 2011):

system: amyloid-beta (1-42) peptide; assay: ELISA assay of amyloid-beta (1-42) in conditioned media of 2B7 cells; type: cell-based; conditions: 5 h, Aβ-42, 2B7 cells, 5 hours; read-out: IC50 range
Protocol: Compounds of the present invention, and extracts comprising said compounds, may be assayed as inhibitors of amyloid-beta (1-42) peptide in vitro or in vivo. Such assay methods are described in detail in U.S. Pat. No. 6,649,196, the entirety of which is hereby incorporated herein by reference.
In certain embodiments, provided compounds of the present invention, and extracts comprising said compounds, were assayed as inhibitors of amyloid-beta (1-42) peptide in vitro using an ELISA assay.
Capture Plate Prep: • 6E10 was diluted to 5.0 ug/mL in 100 mM NaHCO3 pH 8.2 (10 ug aliquot per 2 mL buffer); • 100 uL capture antibody solution was added to wells of 96 well plate; • Incubated overnight at 4° C. sealed; • Aspirated off capture antibody; and • Blocked with 250 uL of Blocking Buffer for 2-4 hours at rt sealed.
Conditioned Media: • Cultured 2B7 cells in 96 well plate with 250 uL of media per well until confluent; • Prepared serial dilution of compounds in DMSO at 100× the final desired concentration; • Washed wells with 2B7 cells lx with 250 uL of media; • Diluted DMSO stocks 1:100 into media and mix; and • Added 250 μL of media containing compounds (1% DMSO) to wells with 2B7 cells for 5 hours at 37° C.
Elisa Sample Prep: • Diluted conditioned media 1:2 into blocking buffer; • NOTE: If assaying for A-Beta 1-40 or total A-Beta, then diluted above sample 1:10 with a 50/50 mixture of non-conditioned media containing 1% DMSO and blocking buffer.
Standard Curve Sample Prep: • Diluted appropriate A-Beta peptide stock (stored in 1% NH4OH) to 200 μg/mL in blocking buffer; • Prepared a 1:2 serial dilution from the 200 μg/mL sample (150 μL into 150 μL blocking buffer); and • Added equal volume of standard curve samples to non-conditioned media with 1% DMSO.
Overnight Sample Incubation: • Aspirated blocking buffer from blocked plate; • Added 100 μL of samples to wells of plate (samples will be 50% media with 1% DMSO and 50% blocking buffer; and • Incubated overnight at 4° C. sealed.
Addition of Detection Antibody: • Aspirated off samples, wash 2× with 250 μL blocking buffer; and • Added 100 μL detection antibody labeled with HRP at 0.25 ug/mL in blocking buffer for 4 hours at room temperature sealed.
Final Wash and Readout: • Aspirated wells, wash 5× with 250 μL of PBS-T (2 minutes each wash at 30 RPM); • Added 100 μL TMB for 20 minutes; • Added 100 μL of 1M H3PO4; and • Read at 450 nm.
Coating Buffer (100 mM NaHCO3 pH 8.2)
PBS-T (PBS with 0.05% Tween-20)
Blocking Buffer (1% BSA in PBS-T)

Row | Structure (SMILES) | IC50
1 | CO[C@@H]([C@H]1C[C@@H](C)C2C(O1)[C@H](O)[C@@]1(C)[C@@H]3CC[C@H]4C(C)(C)[C@@H](O[C@@H]5OC[C@@H](O)[C@H](O)[C@H]5O)CC[C@@]45C[C@@]35CC[C@]21C)C(C)(C)O (stereo partly drawn) | 1 to 10 µM
2 | CCC(=O)O[C@@H]([C@H]1C[C@@H](C)C2C(O1)C(O)[C@@]1(C)[C@@H]3CC[C@H]4C(C)(C)[C@@H](O[C@@H]5OC[C@@H](O)[C@H](O)[C@H]5O)CC[C@@]45C[C@@]35CC[C@]21C)C(C)(C)O (stereo partly drawn) | ≤ 1 µM
3 | CC(=O)O[C@@H]([C@H]1C[C@@H](C)C2C(O1)[C@H](O)[C@@]1(C)[C@@H]3CC[C@H]4C(C)(C)[C@@H](O)CC[C@@]45C[C@@]35CC[C@]21C)C(C)(C)O (stereo partly drawn) [drawing 897] | ≤ 1 µM
4 | CCN1CCO[C@@H](O[C@H]2CC[C@]34C[C@]35CC[C@]3(C)[C@@H]6[C@H](O[C@@H]([C@H](OC(C)=O)C(C)(C)O)C[C@H]6C)[C@H](O)[C@@]3(C)[C@@H]5CC[C@H]4C2(C)C)C1 | ≤ 1 µM
5 | CC(=O)O[C@@H]([C@H]1C[C@@H](C)C2C(O1)[C@H](O)[C@@]1(C)[C@@H]3CC[C@H]4C(C)(C)[C@H](O)CC[C@@]45C[C@@]35CC[C@]21C)C(C)(C)O (stereo partly drawn) [drawing 925] | ≤ 1 µM
6 | COCO[C@H]1[C@H](O)COC(O[C@H]2CC[C@]34C[C@]35CC[C@]3(C)C6C(O[C@@H]([C@@H]7OC(=O)OC7(C)C)C[C@H]6C)[C@H](O)[C@@]3(C)[C@@H]5CC[C@H]4C2(C)C)[C@@H]1O (stereo partly drawn) | 1 to 10 µM
7 | CC(=O)O[C@@H]([C@H]1C[C@@H](C)[C@H]2[C@H](O1)/C(=N/O)[C@H]1C3CCC4C(C)(C)[C@@H](OC5OC[C@@H](O)[C@H](O)[C@H]5O)CC[C@@]45C[C@@]35CC[C@]21C)C(C)(C)O (stereo partly drawn) | ≤ 1 µM
8 | CC(=O)OC(C)(C)[C@@H](O)[C@H]1C[C@@H](C)C2C(O1)[C@H](O)[C@@]1(C)[C@@H]3CC[C@H]4C(C)(C)[C@@H](O[C@@H]5OC[C@@H](O)[C@H](O)[C@H]5O)CC[C@@]45C[C@@]35CC[C@]21C (stereo partly drawn) | 1 to 10 µM
9 | COCCN[C@H]1CC[C@]23C[C@]24CC[C@]2(C)C5C(O[C@@H]([C@H](OC(C)=O)C(C)(C)O)C[C@H]5C)[C@H](O)[C@@]2(C)[C@@H]4CC[C@H]3C1(C)C (stereo partly drawn) | 1 to 10 µM
10 | CC(=O)O[C@@H]([C@H]1C[C@@H](C)C2C(O1)[C@H](O)[C@@]1(C)[C@@H]3CC[C@H]4C(C)(C)[C@@H](O[C@H]5CN(O)CCO5)CC[C@@]45C[C@@]35CC[C@]21C)C(C)(C)O (stereo partly drawn) | ≤ 1 µM
11 | CC(=O)OC(C)(C)[C@@H](O)[C@H]1C[C@@H](C)C2=C(O1)[C@H](O)[C@@]1(C)[C@@H]3CC[C@H]4C(C)(C)[C@@H](OC5OC[C@@H](O)[C@H](O)[C@H]5O)CC[C@@]45C[C@@]35CC[C@]21C (stereo partly drawn) | 1 to 10 µM
12 | CC(=O)O[C@@H]([C@H]1C[C@@H](C)C2C(O1)[C@H](O)[C@@]1(C)[C@@H]3CC[C@H]4C(C)(C)[C@@H](O[C@@H]5OC[C@@H](O)[C@H](O)[C@H]5O)CC[C@@]45C[C@@]35CC[C@]21C)C(C)(C)O (stereo partly drawn) [drawing 891] | ≤ 1 µM
13 | CC(=O)O[C@@H]([C@H]1C[C@@H](C)[C@H]2[C@H](O1)[C@H](O)[C@@]1(C)[C@@H]3CC[C@H]4C(C)(C)[C@@H](O[C@H]5CN(CCN6CCCC6)CCO5)CC[C@@]45C[C@@]35CC[C@]21C)C(C)(C)O | ≤ 1 µM

same assay, conditions: Aβ-42, 10 umol/L; read-out: % Inhibition (range)

Row | Structure (SMILES) | inhibition at 10 µM
14 | C[C@@H]1C=C(C(F)(F)F)OC2C[C@@]3(C)C4CCC5C(C)(C)[C@@H](O)CC[C@@]56C[C@@]46CC[C@]3(C)C21 (stereo partly drawn) | 25 to 75%

same assay, conditions: Aβ-42, 20 umol/L

Row | Structure (SMILES) | % Inhibition (range)
15 | CC1CC(C(O)C(C)(C)O)OC2C1C1(C)CCC34CC35CCC(OC3CN(C(=O)c6cc(F)cc(F)c6)CCO3)C(C)(C)C5CCC4C1(C)C2O (stereo not drawn) | E E (% inhibition of 25-75%)
16 | CC1CC(C(O)C(C)(C)O)OC2C1C1(C)CCC34CC35CCC(OC3CN(C6CCOCC6)CCO3)C(C)(C)C5CCC4C1(C)C2O (stereo not drawn) | E (% inhibition of 25-75%)
17 | CC1CC(C(O)C(C)(C)O)OC2C1C1(C)CCC34CC35CCC(OC3CN(C(=O)CC6CCC6)CCO3)C(C)(C)C5CCC4C1(C)C2O (stereo not drawn) | E (% inhibition of 25-75%)

same assay, conditions: Aβ-42, 20 umol/L; read-out: % Inhibition (range)

Row | Structure (SMILES) | inhibition at 20 µM
18 | CC(=O)/C=C/[C@H]1C[C@@H](C)C2C(O1)[C@H](O)[C@@]1(C)[C@@H]3CC[C@H]4C(C)(C)[C@@H](O)CC[C@@]45C[C@@]35CC[C@]21C (stereo partly drawn) | < 25%

same assay, conditions: Aβ-42, 100 umol/L

Row | Structure (SMILES) | % Inhibition (range)
19 | CC1CC(C(O)C(C)(C)O)OC2C1C1(C)CCC34CC35CCC(OC3CN(C(=O)CN6CCOCC6)CCO3)C(C)(C)C5CCC4C1(C)C2O (stereo not drawn) | F (% inhibition of <25%)
20 | CC1CC(C(O)C(C)(C)O)OC2C1C1(C)CCC34CC35CCC(OC3CN(C(=O)c6cc(F)cc(F)c6)CCO3)C(C)(C)C5CCC4C1(C)C2O (stereo not drawn) | E E (% inhibition of 25-75%)
21 | CC1CC(C(O)C(C)(C)O)OC2C1C1(C)CCC34CC35CCC(OC3CN(C(=O)CC6CCC6)CCO3)C(C)(C)C5CCC4C1(C)C2O (stereo not drawn) | F (% inhibition of <25%)

same assay, conditions: Aβ-42, 100 umol/L; read-out: % Inhibition (range)

Row | Structure (SMILES) | inhibition at 100 µM
22 | CCC(=O)O[C@@H]([C@H]1C[C@@H](C)C2C(O1)C(O)[C@@]1(C)[C@@H]3CC[C@H]4C(C)(C)[C@@H](O[C@@H]5OC[C@@H](O)[C@H](O)[C@H]5O)CC[C@@]45C[C@@]35CC[C@]21C)C(C)(C)O (stereo partly drawn) | 25 to 75%

same assay, conditions: Aβ-42, 2B7 cells, 5 hours; read-out: IC50 range

Row | Structure (SMILES) | IC50
23 | CC1CC(CN2CCCC2=O)OC2C1C1(C)CCC34CC35CCC(O)C(C)(C)C5CCC4C1(C)C2O (stereo not drawn) | > 10 µM
24 | CC(=O)N(Cc1ccccc1)C(C(=O)NCc1ccccc1)C1CC(C)C2C(O1)C(O)C1(C)C3CCC4C(C)(C)C(O)CCC45CC35CCC21C (stereo not drawn) | > 10 µM
25 | CC(=O)N(C)C(C(=O)NCc1ccccc1)C1CC(C)C2C(O1)C(O)C1(C)C3CCC4C(C)(C)C(O)CCC45CC35CCC21C (stereo not drawn) | > 10 µM
26 | CC1CC(CN2CCCCC2=O)OC2C1C1(C)CCC34CC35CCC(O)C(C)(C)C5CCC4C1(C)C2O (stereo not drawn) | > 10 µM
27 | CC(=O)N(CC1CC(C)C2C(O1)C(O)C1(C)C3CCC4C(C)(C)C(O)CCC45CC35CCC21C)C1CCC1 (stereo not drawn) | > 10 µM
28 | CC(=O)OC(C1CC(C)C2C(O1)C(OC(N)=O)C1(C)C3CCC4C(C)(C)C(O)CCC45CC35CCC21C)C(C)(C)O (stereo not drawn) | > 10 µM
29 | CC1CC(C(=O)NC2CCC2)OC2C1C1(C)CCC34CC35CCC(O)C(C)(C)C5CCC4C1(C)C2O (stereo not drawn) | > 10 µM
30 | CC1CC(CN(C)C)OC2C1C1(C)CCC34CC35CCC(O)C(C)(C)C5CCC4C1(C)C2O (stereo not drawn) | > 10 µM
31 | CC(=O)OC(C1CC(C)C2C(O1)C(O)C1(C)C3CCC4C(C)(C)C(OC(=O)C5CCN5)CCC45CC35CCC21C)C(C)(C)O (stereo not drawn) | ≤ 1 µM
32 | CC1CC(C(OC(=O)C2CCC2)C(C)(C)O)OC2C1C1(C)CCC34CC35CCC(O)C(C)(C)C5CCC4C1(C)C2O (stereo not drawn) [drawing 859] | ≤ 1 µM
33 | CC(=O)N(Cc1cc(F)cc(F)c1)CC1CC(C)C2C(O1)C(O)C1(C)C3CCC4C(C)(C)C(OC(=O)C5CN(C(=O)OC(C)(C)C)C5)CCC45CC35CCC21C (stereo not drawn) | > 10 µM
34 | CC(=O)N(CC1CC(C)C2C(O1)C(O)C1(C)C3CCC4C(C)(C)C(O)CCC45CC35CCC21C)C(C)c1ccccc1 (stereo not drawn) [drawing 844] | < 10 µM
35 | CC1CC(c2nnco2)OC2C1C1(C)CCC34CC35CCC(O)C(C)(C)C5CCC4C1(C)C2O (stereo not drawn) | > 10 µM
36 | CC(=O)N(Cc1cccnc1)CC1CC(C)C2C(O1)C(O)C1(C)C3CCC4C(C)(C)C(O)CCC45CC35CCC21C (stereo not drawn) | > 10 µM
37 | CC1CC(C(OC(=O)C2CC2)C(C)(C)O)OC2C1C1(C)CCC34CC35CCC(O)C(C)(C)C5CCC4C1(C)C2O (stereo not drawn) [drawing 853] | ≤ 1 µM
38 | CC1CC(CN(CC(C)(C)O)S(C)(=O)=O)OC2C1C1(C)CCC34CC35CCC(O)C(C)(C)C5CCC4C1(C)C2O (stereo not drawn) | > 10 µM
39 | CCN1CCOC(OC2CCC34CC35CCC3(C)C6C(C)CC(C(OC(C)=O)C(C)(C)O)OC6C(OC(C)=O)C3(C)C5CCC4C2(C)C)C1 (stereo not drawn) | > 10 µM
40 | CC1CC(CN(Cc2ccccc2)C(=O)N(C)C)OC2C1C1(C)CCC34CC35CCC(O)C(C)(C)C5CCC4C1(C)C2O (stereo not drawn) | > 10 µM
41 | CO[C@@H]1[C@@H](OC)[C@H](O[C@H]2CC[C@]34C[C@]35CC[C@]3(C)C6C(O[C@@H]([C@H](OC(C)=O)C(C)(C)O)C[C@H]6C)[C@H](O)[C@@]3(C)[C@@H]5CC[C@H]4C2(C)C)OC[C@H]1OC (stereo partly drawn) [drawing 938] | ≤ 1 µM
42 | COC(=O)N(CC1CC(C)C2C(O1)C(O)C1(C)C3CCC4C(C)(C)C(O)CCC45CC35CCC21C)C(C)(C)C (stereo not drawn) | > 10 µM
